Measured values as given in patent US9241921B2, “Photosensitizer composition for treating skin disorders” (priority 2011, dated 2016).

System: acne vulgaris
Assay: Open-label prospective human study of topical ALA-PDT in acne vulgaris
Type: in vivo
Details: after treatment, amelioration of acne (FIG. 5)
Experimental: Photodynamic therapy with topical ALA composition as described in Example 1 was tested for the treatment of acne vulgaris, in an open-label prospective human study. 22 subjects with acne on their back were treated at 4 different sites with one of the following at each site: ALA plus red light (ALA-PDT), ALA alone, light alone, and untreated control. Half of the subjects were treated once; half were treated 4 times. 20% topical ALA of Example 1 was applied with 3 hr occlusion, and 150 J/cm^2 broad band light ([…]) was applied to the treated site. Sebum excretion rate and auto-fluorescence from follicular bacteria were measured before, and at 2, 3, 10, and 20 weeks after treatment. […]
Subjects were randomly divided into single treatment group or multiple treatment group. At baseline, clinical evaluations, natural bacterial porphyrin fluorescence photography, and sebum excretion rate (SER) evaluation were performed. […] In both groups, subjects returned one week after treatments for clinical evaluations and at weeks 2, 3, 10 and 20 for clinical, fluorescence, and SER evaluations.
Each subject's acne was visually assessed using an inflammatory acne score modified from that previously described (Burke et al., 1994). […] The numbers of comedo, inflammatory comedo, papules, pustules, nodules and cysts in each test area were recorded. […]

O=C(OOC(=O)c1ccccc1)c1ccccc1 [Benzoyl Peroxide]
time until therapeutic effect occurred: eight to twelve
